From patent US20140031278A1, “Novel Glucagon Analogues” (NOVO NORDISK A/S, priority 2011, published 2014) come the findings set out here.

*1 amine or outer side, *2 acyl side, *3 side chain or, on linkers, in order; H or OH if unused. Where a SMILES comes first, the peptide text is derived from it. Side-chain parts run from the residue outwards. γGlu = O=C(O)[C@H](CCC(=O)[*:2])N[*:1]; εLys = N[C@@H](CCCCN[*:1])C(=O)[*:2]

The target of this test is T1, glucagon receptor (Homo sapiens, UniProt P47871).
T1 construct: expressed in transfected cells
The test can be described thus: Assay (I) Glucagon activity (cAMP biosensor, FLIPR). The format is cell-based. The conditions noted are these: HEK-293 cells with cloned glucagon receptor and cAMP biosensor; end point after 6 minutes. The method, then:
The glucagon receptor was cloned into HEK-293 cells having a membrane bound cAMP biosensor (ACTOne™). The cells (14000 per well) were incubated (37° C., 5% CO2) overnight in 384-well plates. Next day the cells were loaded with a calcium responsive dye that only distributed into the cytoplasm. Probenecid, an inhibitor of the organic anion transporter, was added to prevent the dye from leaving the cell. A PDE inhibitor was added to prevent formatted cAMP from being degraded, The plates were placed into a […] and the glucagon analogues were added. End point data were collected after 6 minutes. An increase in intracellular cAMP was proportional to an increased in calcium concentrations in the cytoplasm. When calcium was bound the dry a fluorescence signal was generated. EC50-values were calculated in Prism5.

T1 sequence (P47871 26-477): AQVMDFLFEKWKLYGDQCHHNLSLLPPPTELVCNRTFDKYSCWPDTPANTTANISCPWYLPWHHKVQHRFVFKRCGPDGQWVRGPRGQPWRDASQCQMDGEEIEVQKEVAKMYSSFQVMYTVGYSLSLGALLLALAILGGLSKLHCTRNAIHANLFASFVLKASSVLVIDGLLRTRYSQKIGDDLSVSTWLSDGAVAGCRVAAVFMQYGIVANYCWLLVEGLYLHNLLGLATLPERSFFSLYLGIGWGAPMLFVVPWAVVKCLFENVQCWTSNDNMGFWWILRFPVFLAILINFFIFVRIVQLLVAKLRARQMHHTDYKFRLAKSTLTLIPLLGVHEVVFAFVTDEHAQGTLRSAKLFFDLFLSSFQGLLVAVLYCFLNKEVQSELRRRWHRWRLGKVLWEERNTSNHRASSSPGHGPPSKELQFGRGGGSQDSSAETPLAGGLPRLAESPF

`CC(=O)N[C@@H](CCC(=O)N[C@@H](CCC(=O)N[C@@H](CCC(=O)N[C@@H](CCC(=O)NCCCC[C@H](NC(=O)[C@@H](NC(=O)[C@H](Cc1ccccc1)NC(=O)[C@H](CC(=O)O)NC(=O)[C@H](C)NC(=O)[C@H](C)NC(=O)[C@H](CCCNC(=N)N)NC(=O)[C@H](CCCNC(=N)N)NC(=O)[C@H](Cc1ccccc1)NC(=O)[C@H](CC(=O)O)NC(=O)[C@H](CC(C)C)NC(=O)[C@H](Cc1ccc(O)cc1)NC(=O)[C@H](CCCCN)NC(=O)[C@H](CO)NC(=O)[C@H](Cc1ccc(O)cc1)NC(=O)[C@H](CC(=O)O)NC(=O)[C@H](CO)NC(=O)[C@@H](NC(=O)[C@H](Cc1ccccc1)NC(=O)[C@@H](NC(=O)CNC(=O)[C@H](Cc1c[nH]cn1)NC(=O)[C@H](CO)NC(=O)[C@@H](N)Cc1c[nH]cn1)[C@@H](C)O)[C@@H](C)O)C(C)C)C(=O)N[C@@H](Cc1c[nH]c2ccccc12)C(=O)N[C@@H](CC(C)C)C(=O)N[C@@H](CC(C)C)C(=O)N[C@@H](CO)C(=O)N[C@H](C(=O)O)[C@@H](C)O)C(=O)O)C(=O)O)C(=O)O)C(=O)O` [Example 12, N^ε24-[(4S)-4-[[(4S)-4-[[(4S)-4-[[(4S)-4-acetamido-4-carboxybutanoyl]amino]-4-carboxybutanoyl]amino]-4-carboxybutanoyl]amino]-4-carboxybutanoyl]-[His3,Phe16,Ala20,Lys24,Leu27,Ser28]-Glucagon] (H-HSHGTFTSDYSKYLDFRRAADFVK([γGlu-γGlu-γGlu-γGlu-Ac])WLLST-OH): the concentration giving a half-maximal response (EC50) (usually the concentration giving half of the maximal effect) is 0.0103 nM.
With `CC(=O)N[C@@H](CCC(=O)N[C@@H](CCC(=O)N[C@@H](CCC(=O)N[C@@H](CCC(=O)NCCCC[C@H](NC(=O)[C@@H](NC(=O)[C@H](Cc1ccccc1)NC(=O)[C@H](CC(=O)O)NC(=O)[C@H](CCC(N)=O)NC(=O)[C@H](C)NC(=O)[C@H](CCCNC(=N)N)NC(=O)[C@H](CCCNC(=N)N)NC(=O)[C@H](CC(C)C)NC(=O)[C@H](CC(=O)O)NC(=O)[C@H](CC(C)C)NC(=O)[C@H](Cc1ccc(O)cc1)NC(=O)[C@H](CCCCN)NC(=O)[C@H](CO)NC(=O)[C@H](Cc1ccc(O)cc1)NC(=O)[C@H](CC(=O)O)NC(=O)[C@H](CO)NC(=O)[C@@H](NC(=O)[C@H](Cc1ccccc1)NC(=O)[C@@H](NC(=O)CNC(=O)[C@H](CCC(N)=O)NC(=O)CNC(=O)[C@@H](N)Cc1c[nH]cn1)[C@@H](C)O)[C@@H](C)O)C(C)C)C(=O)N[C@@H](Cc1c[nH]c2ccccc12)C(=O)N[C@@H](CC(C)C)C(=O)N[C@@H](CC(C)C)C(=O)N[C@@H](CO)C(=O)N[C@H](C(=O)O)[C@@H](C)O)C(=O)O)C(=O)O)C(=O)O)C(=O)O` [Example 55, N^ε24-[(4S)-4-[[(4S)-4-[[(4S)-4-[[(4S)-4-acetamido-4-carboxybutanoyl]amino]-4-carboxybutanoyl]amino]-4-carboxybutanoyl]amino]-4-carboxybutanoyl]-[Gly^2,Leu^16,Lys^24,Leu^27,Ser^28]-Glucagon] (H-HGQGTFTSDYSKYLDLRRAQDFVK([γGlu-γGlu-γGlu-γGlu-Ac])WLLST-OH), the EC50 is 0.051 nM.
In turn, `CC(=O)N[C@@H](CCC(=O)N[C@@H](CCC(=O)N[C@@H](CCC(=O)N[C@@H](CCC(=O)NCCCC[C@H](NC(=O)[C@@H](NC(=O)[C@H](Cc1ccccc1)NC(=O)[C@H](CC(=O)O)NC(=O)[C@H](CCC(N)=O)NC(=O)[C@H](C)NC(=O)[C@H](CCCNC(=N)N)NC(=O)[C@H](CCCNC(=N)N)NC(=O)[C@H](CC(C)C)NC(=O)[C@H](CC(=O)O)NC(=O)[C@H](CC(C)C)NC(=O)[C@H](Cc1ccc(O)cc1)NC(=O)[C@H](CCCNC(=N)N)NC(=O)[C@H](CO)NC(=O)[C@H](Cc1ccc(O)cc1)NC(=O)[C@H](CC(=O)O)NC(=O)[C@H](CO)NC(=O)[C@@H](NC(=O)[C@H](Cc1ccccc1)NC(=O)[C@@H](NC(=O)CNC(=O)[C@H](CCC(N)=O)NC(=O)[C@H](CO)NC(=O)[C@@H](N)Cc1c[nH]cn1)[C@@H](C)O)[C@@H](C)O)C(C)C)C(=O)N[C@@H](Cc1c[nH]c2ccccc12)C(=O)N[C@@H](CC(C)C)C(=O)N[C@@H](CC(C)C)C(=O)N[C@@H](CO)C(=O)N[C@H](C(=O)N1CCC[C@H]1C(=O)O)[C@@H](C)O)C(=O)O)C(=O)O)C(=O)O)C(=O)O` [Example 40, N^ε24-[(4S)-4-[[(4S)-4-[[(4S)-4-[[(4S)-4-acetamido-4-carboxybutanoyl]amino]-4-carboxybutanoyl]amino]-4-carboxybutanoyl]amino]-4-carboxybutanoyl]-[Arg12,Leu16,Lys24,Leu27,Ser28]-Glucagonyl-Pro] (H-HSQGTFTSDYSRYLDLRRAQDFVK([γGlu-γGlu-γGlu-γGlu-Ac])WLLSTP-OH) gave an EC50 of 0.003 nM.
In the case of `CC(=O)N[C@@H](CCC(=O)N[C@@H](CCC(=O)N[C@@H](CCC(=O)N[C@@H](CCC(=O)NCCCC[C@H](NC(=O)[C@@H](NC(=O)[C@H](Cc1ccccc1)NC(=O)[C@H](CC(=O)O)NC(=O)[C@H](CCC(N)=O)NC(=O)[C@H](C)NC(=O)[C@H](CCCNC(=N)N)NC(=O)[C@H](CCCNC(=N)N)NC(=O)[C@H](CO)NC(=O)[C@H](CC(=O)O)NC(=O)[C@H](CC(C)C)NC(=O)[C@H](Cc1ccc(O)cc1)NC(=O)[C@H](CCCCN)NC(=O)[C@H](CO)NC(=O)[C@H](Cc1ccc(O)cc1)NC(=O)[C@H](CC(=O)O)NC(=O)[C@H](CO)NC(=O)[C@@H](NC(=O)[C@H](Cc1ccccc1)NC(=O)[C@@H](NC(=O)CNC(=O)[C@H](Cc1c[nH]cn1)NC(=O)[C@H](CO)NC(=O)[C@@H](N)Cc1c[nH]cn1)[C@@H](C)O)[C@@H](C)O)C(C)C)C(=O)N[C@@H](Cc1c[nH]c2ccccc12)C(=O)N[C@@H](CC(C)C)C(=O)N[C@@H](CC(C)C)C(=O)N[C@@H](CO)C(=O)N[C@H](C(=O)O)[C@@H](C)O)C(=O)O)C(=O)O)C(=O)O)C(=O)O` [Example 3] it was 0.0105 nM; in that of `CC(=O)N[C@@H](CCC(=O)N[C@@H](CCC(=O)N[C@@H](CCC(=O)N[C@@H](CCC(=O)NCCCC[C@H](NC(=O)[C@@H](NC(=O)[C@H](Cc1ccccc1)NC(=O)[C@H](CCC(=O)O)NC(=O)[C@H](C)NC(=O)[C@H](C)NC(=O)[C@H](CCCNC(=N)N)NC(=O)[C@H](CCCNC(=N)N)NC(=O)[C@@H](NC(=O)[C@H](CC(=O)O)NC(=O)[C@H](CC(C)C)NC(=O)[C@H](Cc1ccc(O)cc1)NC(=O)[C@H](CCCCN)NC(=O)[C@H](CO)NC(=O)[C@H](Cc1ccc(O)cc1)NC(=O)[C@H](CC(=O)O)NC(=O)[C@H](CO)NC(=O)[C@@H](NC(=O)[C@H](Cc1ccccc1)NC(=O)[C@@H](NC(=O)CNC(=O)[C@H](CCC(N)=O)NC(=O)CNC(=O)[C@@H](N)Cc1c[nH]cn1)[C@@H](C)O)[C@@H](C)O)C(C)C)C(C)C)C(=O)N[C@@H](Cc1c[nH]c2ccccc12)C(=O)N[C@@H](CC(C)C)C(=O)N[C@@H](CC(C)C)C(=O)N[C@@H](CO)C(=O)N[C@H](C(=O)O)[C@@H](C)O)C(=O)O)C(=O)O)C(=O)O)C(=O)O` [Example 49, N^ε24-[(4S)-4-[[(4S)-4-[[(4S)-4-[[(4S)-4-acetamido-4-carboxybutanoyl]amino]-4-carboxybutanoyl]amino]-4-carboxybutanoyl]amino]-4-carboxybutanoyl]-[Gly^2,Val^16,Ala^20,Glu^21,Lys^24,Leu^27,Ser^28]-Glucagon] (H-HGQGTFTSDYSKYLDVRRAAEFVK([γGlu-γGlu-γGlu-γGlu-Ac])WLLST-OH), 0.054 nM.
With `CC(=O)N[C@@H](CCC(=O)N[C@@H](CCC(=O)N[C@@H](CCC(=O)N[C@@H](CCC(=O)NCCCC[C@H](N)C(=O)NCCCC[C@H](NC(=O)[C@H](CC(=O)O)NC(=O)[C@H](CC(C)C)NC(=O)[C@H](Cc1ccc(O)cc1)NC(=O)[C@H](CCCCN)NC(=O)[C@H](CO)NC(=O)[C@H](Cc1ccc(O)cc1)NC(=O)[C@H](CC(=O)O)NC(=O)[C@H](CO)NC(=O)[C@@H](NC(=O)[C@H](Cc1ccccc1)NC(=O)[C@@H](NC(=O)CNC(=O)[C@H](CCC(N)=O)NC(=O)[C@H](CO)NC(=O)[C@@H](N)Cc1c[nH]cn1)[C@@H](C)O)[C@@H](C)O)C(=O)N[C@@H](CCCNC(=N)N)C(=O)N[C@@H](C)C(=O)N[C@@H](C)C(=O)N[C@@H](CCC(N)=O)C(=O)N[C@@H](CC(=O)O)C(=O)N[C@@H](Cc1ccccc1)C(=O)N[C@H](C(=O)N[C@@H](CCC(N)=O)C(=O)N[C@@H](Cc1c[nH]c2ccccc12)C(=O)N[C@@H](CC(C)C)C(=O)N[C@@H](CC(C)C)C(=O)N[C@@H](CO)C(=O)N[C@H](C(N)=O)[C@@H](C)O)C(C)C)C(=O)O)C(=O)O)C(=O)O)C(=O)O` [Example 59] (H-HSQGTFTSDYSKYLDK([εLys-γGlu-γGlu-γGlu-γGlu-Ac])RAAQDFVQWLLST-NH2), the EC50 came to 0.013 nM. Compared with the last compound, the EC50 is about 4.2-fold lower.
`CC(=O)N[C@@H](CCC(=O)N[C@@H](CCC(=O)N[C@@H](CCC(=O)N[C@@H](CCC(=O)NCCCC[C@H](NC(=O)[C@@H](NC(=O)[C@H](Cc1ccccc1)NC(=O)[C@H](CC(=O)O)NC(=O)[C@H](CCC(N)=O)NC(=O)[C@H](C)NC(=O)[C@H](CCCNC(=N)N)NC(=O)[C@H](CCCNC(=N)N)NC(=O)[C@H](CC(C)C)NC(=O)[C@H](CC(=O)O)NC(=O)[C@H](CC(C)C)NC(=O)[C@H](Cc1ccc(O)cc1)NC(=O)[C@H](CCCCN)NC(=O)[C@H](CO)NC(=O)[C@H](Cc1ccc(O)cc1)NC(=O)[C@H](CC(=O)O)NC(=O)[C@H](CO)NC(=O)[C@@H](NC(=O)[C@H](Cc1ccccc1)NC(=O)[C@@H](NC(=O)CNC(=O)[C@H](CCC(N)=O)NC(=O)[C@@H](NC(=O)[C@@H](N)Cc1c[nH]cn1)[C@@H](C)O)[C@@H](C)O)[C@@H](C)O)C(C)C)C(=O)N[C@@H](Cc1c[nH]c2ccccc12)C(=O)N[C@@H](CC(C)C)C(=O)N[C@@H](CC(C)C)C(=O)N[C@@H](CO)C(=O)N[C@H](C(=O)O)[C@@H](C)O)C(=O)O)C(=O)O)C(=O)O)C(=O)O` [Example 41, N^e24-[(4S)-4-[[(4S)-4-[[(4S)-4-[[(4S)-4-acetamido-4-carboxybutanoyl]amino]-4-carboxybutanoyl]amino]-4-carboxybutanoyl]amino]-4-carboxybutanoyl]-[Thr^2,Leu^16,Lys^24,Leu^27,Ser^28]-Glucagon] (H-HTQGTFTSDYSKYLDLRRAQDFVK([γGlu-γGlu-γGlu-γGlu-Ac])WLLST-OH): the 50% effective concentration (EC50) amounted to 0.003 nM.
